Conditions: Liquid, Ebulliometric method (Recirculating still)

CCCCCCO [hexan-1-ol]
Conditions | vapor or sublimation pressure [kPa]
366.67 K | 8.323
372.64 K | 11.06
377.56 K | 13.87
381.8 K | 16.77
381.81 K | 16.77
386.17 K | 20.26
390.77 K | 24.54
390.78 K | 24.54
395.23 K | 29.35
399.57 K | 34.77
403.73 K | 40.7
407.98 K | 47.57
414.61 K | 60.2
420.99 K | 74.69
427.85 K | 93.19
427.9 K | 93.26
429.52 K | 98.12
429.54 K | 98.16
431.85 K | 105.46
432.25 K | 106.75
432.32 K | 106.98

CCCCCCCCO [octan-1-ol]
Conditions | vapor or sublimation pressure [kPa]
397.32 K | 8.355
403.71 K | 11.1
409.14 K | 13.95
413.79 K | 16.83
418.61 K | 20.33
418.62 K | 20.33
418.63 K | 20.33
423.7 K | 24.62
428.65 K | 29.45
433.49 K | 34.89
438.12 K | 40.83
438.14 K | 40.83
442.88 K | 47.73
450.34 K | 60.37
457.52 K | 74.88
465.25 K | 93.42
465.29 K | 93.54

CCCCCCCCCCCCCCO [1-tetradecanol]
Conditions | vapor or sublimation pressure [kPa]
479.42 K | 8.319
487.56 K | 11.05
494.5 K | 13.89
500.44 K | 16.78
506.63 K | 20.26
513.01 K | 24.53
513.07 K | 24.53
519.11 K | 29.35
519.18 K | 29.35

CCCCCCCO [heptan-1-ol]
Conditions | vapor or sublimation pressure [kPa]
382.3 K | 8.324
388.34 K | 11.05
388.36 K | 11.05
393.65 K | 13.89
393.67 K | 13.89
398 K | 16.77
402.68 K | 20.25
407.45 K | 24.53
407.46 K | 24.54
412.21 K | 29.34
412.22 K | 29.35
416.72 K | 34.76
416.78 K | 34.76
421.2 K | 40.69
425.69 K | 47.55
425.77 K | 47.57
432.77 K | 60.19
439.55 K | 74.66
446.78 K | 92.98
446.82 K | 93.13
446.87 K | 93.24
448.6 K | 98.12
448.63 K | 98.2
450.73 K | 104.37
452.84 K | 110.87
452.97 K | 111.28

CC(C)(C)CO [2,2-dimethyl-1-propanol]
Conditions | vapor or sublimation pressure [kPa]
345.9 K | 20.26
350 K | 24.53
353.97 K | 29.35
357.84 K | 34.76
361.57 K | 40.7
365.36 K | 47.56
371.31 K | 60.19
377 K | 74.65
383.15 K | 93.23
384.84 K | 98.94

Source: the NIST ThermoML archive (doi:10.1016/j.fluid.2010.06.019)
